Experimental findings from patent publication US12421212B2, “Substituted benzenecarboxamides as IL-17A modulators” (DiCE Alpha, Inc., priority 2019, dated 2025) are described below.

The assay deals with T1, IL-17A/A (Homo sapiens, UniProt Q16552).
T1 construct: purchased Genscript Z03228
T1 sequence (Q16552 24-155): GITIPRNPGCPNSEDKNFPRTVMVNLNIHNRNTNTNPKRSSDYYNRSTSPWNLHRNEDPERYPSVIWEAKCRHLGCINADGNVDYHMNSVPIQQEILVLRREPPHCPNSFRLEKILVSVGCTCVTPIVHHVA
The experiment in a line: IL-17A/A HEK-Blue Cell Assay. The format is cell-based. The settings on record: HEK-Blue IL-17A reporter cell line, SEAP readout at A630, 20 hours incubation with IL-17A/A, top concentration 10 uM, 1 uM or 0.3 uM; for IC50: read-out: IL-17A/A inhibition (pIC50) (converted).

As to `CCC(=O)N[C@@H](C(=O)N1CCN(C)CC1)[C@@H](C)c1ccc(NC(=O)[C@@H](NC(=O)C(F)(F)c2csc(C)c2)C2CCCCCC2)c(F)c1` [Compound 265], the IC50 is less than 10 nM. Still for that read-out and setting: to `CCn1nccc1C(=O)N[C@H](C(=O)Nc1ccc([C@H](C)[C@@H](NC(=O)C2(F)CCC2)C(=O)N2CCN(C)[C@H](C)C2)cc1F)[C@H]1CC[C@H](C)CC1` [Compound 482] belongs 10 to 100 nM.

`CCC(=O)N[C@@H](C(=O)N1CCN(C)CC1)[C@@H](C)c1ccc(NC(=O)[C@@H](NC(=O)CC2CCNCC2)C2CCCCC2)c(F)c1` [Compound 741]: the “IL-17A/A inhibition (pIC50)” value was “X2b (compounds were evaluated up to 1 uM and inhibited activity at 1 uM by less than 20%)”. As to `CCC(=O)N[C@@H](C(=O)N1CCN(C)CC1)[C@@H](C)c1ccc(NC(=O)[C@@H](NC(=O)C(F)(F)c2ccc3c(c2)OCO3)C2CCCCC2)c(F)c1` [Compound 244], the IC50 is 10 to 100 nM. Turning to `CCC(=O)N[C@@H](C(=O)N1CCN(C)CC1)[C@@H](C)c1ccc(NC(=O)[C@@H](NC(=O)C(F)(F)c2cccc(C)c2)C2CCCCC2)c(F)c1` [Compound 684], the IC50 was 100 to 10000 nM.

For the compound `CCC(=O)N[C@H](Cc1ccc(NC(=O)[C@@H](NC(=O)c2cnc(CNS(C)(=O)=O)n2C)C2CCCCC2)c(F)c1)C(=O)N1CCN(C)CC1` [Compound 716], the “IL-17A/A inhibition (pIC50)” value was “X2b (compounds were evaluated up to 1 uM and inhibited activity at 1 uM by less than 20%)”. On to `CCC(=O)N[C@@H](C(=O)N1CCN(C)CC1)C(OC)c1ccc(NC(=O)[C@@H](NC(=O)c2ccnn2CC)[C@H]2CC[C@H](C)CC2)c(F)c1` (stereo partly drawn) [Compound 572], for which the IC50 was 100 to 10000 nM. Same read-out and setting: the result for `CCC(=O)N[C@@H](C(=O)N1CCS(=O)(=O)CC1)[C@@H](C)c1ccc(NC(=O)[C@@H](NC(=O)c2ccnn2CC)C2CCCCCC2)c(F)c1` [Compound 353] reads 10 to 100 nM; that for `CCC(=O)N[C@H](Cc1ccc(NC(=O)[C@@H](NC(=O)c2ccnn2CC(F)F)C2CCCCC2)c(F)c1)C(=O)N1CCN(C)CC1` [Compound 669], 100 to 10000 nM. As to `CCC(=O)N[C@H](Cc1ccc(NC(=O)[C@@H](NC(=O)c2ccnn2CC)C2CCCCC2)c(F)c1)C(=O)NCCO` [Compound 752], the “IL-17A/A inhibition (pIC50)” value is “X2b (compounds were evaluated up to 1 uM and inhibited activity at 1 uM by less than 20%)”. As for `CCC(=O)N[C@@H](C(=O)N1CCOCC1)[C@@H](C)c1ccc(NC(=O)[C@@H](NC(=O)c2ccnn2CC)C2CCCCC2)c(F)c1` [Compound 359], the IC50 is 10 to 100 nM. In the case of `CCC(=O)N[C@H](Cc1ccc(NC(=O)[C@@H](NC(=O)c2conc2CC)[C@H]2CC[C@H](C)CC2)c(F)c1)C(=O)N1CCN(C)CC1` [Compound 630], the IC50 was 100 to 10000 nM. Take `CCn1nccc1C(=O)N[C@H](C(=O)Nc1ccc([C@H](C)[C@@H](NC(=O)C2(F)CC2)C(=O)N2CCN(C)CC2)cc1F)[C@H]1CC[C@H](C)CC1` [Compound 406]: the IC50 is 10 to 100 nM. As to `CCC(=O)N[C@@H](C(=O)N1CCN(C)CC1)[C@H](C)c1ccc(NC(=O)[C@@H](NC(=O)c2ccnn2CC)C2CCCCC2)cc1` [Compound 771], the “IL-17A/A inhibition (pIC50)” value was “X1a (compounds were evaluated up to 10 uM and did not inhibit activity by >80%, however they showed some activity at 10 uM (less than 80% and more than 20%))”. Turning to `CCc1nonc1C(=O)N[C@H](C(=O)Nc1ccc([C@H](C)C(NC(=O)C(C)F)C(=O)N2CCN(C)[C@@H](C)C2)cc1F)[C@H]1CC[C@H](C)CC1` (single isomer, unassigned) [Compound 595], the IC50 was 10 to 100 nM. With `CCC(=O)N[C@H](Cc1ccc(NC(=O)[C@@H](NC(=O)c2coc3cc(OC)ccc23)C2CCCCC2)c(F)c1)C(=O)N1CCN(C)CC1` [Compound 239], the IC50 is 10 to 100 nM. For `CCC(=O)N[C@H](Cc1ccc(NC(=O)[C@@H](NC(=O)Cc2ccc(OC)nc2)C2CCCCC2)c(F)c1)C(=O)N1CCN(C)CC1` [Compound 711], the “IL-17A/A inhibition (pIC50)” value is “X2a (compounds were evaluated up to 1 uM and did not inhibit activity by >80%, however they showed some activity at 1 uM (less than 80% and more than 20%))”.

As to `CCC(=O)N[C@H](Cc1ccc(NC(=O)[C@@H](NC(=O)c2ccnn2CC)C2CCCCC2)c(F)c1)C(=O)N1CCN(C(C)C)CC1` [Compound 651], the IC50 is 100 to 10000 nM.

As to `CCC(=O)N[C@H](Cc1ccc(NC(=O)[C@@H](NC(=O)c2ccc(C(=O)NC)s2)C2CCCCC2)c(F)c1)C(=O)N1CCN(C)CC1` [Compound 779], the “IL-17A/A inhibition (pIC50)” value is “X1a (compounds were evaluated up to 10 uM and did not inhibit activity by >80%, however they showed some activity at 10 uM (less than 80% and more than 20%))”. For the compound `CCn1nccc1C(=O)N[C@H](C(=O)Nc1ccc(C[C@@H](NC(=O)c2cn(C)cn2)C(=O)N2CCN(C)CC2)cc1F)C1CCCCC1` [Compound 702], the “IL-17A/A inhibition (pIC50)” value was “X2b (compounds were evaluated up to 1 uM and inhibited activity at 1 uM by less than 20%)”. As to `CCC(=O)N[C@@H](C(=O)N1CCN(C)CC1)[C@@H](C)c1ccc(NC(=O)C(NC(=O)c2ccnn2CC)[C@@H](C)C2CCCCC2)c(F)c1` (stereo partly drawn) [Compound 390], the IC50 was less than 10 nM. Consider `CCC(=O)N[C@H](Cc1ccc(NC(=O)[C@@H](NC(=O)C(C)(C)c2ccccc2)C2CCCCC2)c(F)c1)C(=O)N1CCN(C)CC1` [Compound 709], for which the “IL-17A/A inhibition (pIC50)” value is “X2b (compounds were evaluated up to 1 uM and inhibited activity at 1 uM by less than 20%)”. Regarding `CCC(=O)N[C@@H](C(=O)N1CCN(C)CC1)[C@@H](C)c1ccc(NC(=O)C(NC(=O)c2conc2CC)C2CCc3ccccc32)c(F)c1` (stereo partly drawn) [Compound 287], the IC50 was less than 10 nM. As for `CCC(=O)N[C@@H](C(=O)N1CCN(C)CC1)[C@@H](C)c1ccc(NC(=O)[C@@H](NC(=O)C(F)(F)c2cccc(C#N)c2)[C@H]2CC[C@H](C(F)(F)F)CC2)c(F)c1` [Compound 286], the IC50 is 10 to 100 nM.

Consider `CCC(=O)N[C@H](Cc1ccc(NC(=O)C(NC(=O)c2ccnn2CC)C2CCc3ccccc3C2)c(F)c1)C(=O)N1CCN(C)CC1` (stereo partly drawn) [Compound 634], for which the IC50 was 100 to 10000 nM. Same read-out and setting: to `CCn1nccc1C(=O)N[C@H](C(=O)Nc1ccc([C@H](C)[C@@H](NC(=O)c2csnn2)C(=O)N2CCN(C)CC2)cc1F)C1CCCCC1` [Compound 644] belongs 100 to 10000 nM. Still for that read-out and setting: to `CCC(=O)N[C@@H](C(=O)N1CCC(C)CC1)[C@@H](C)c1ccc(NC(=O)[C@@H](NC(=O)c2ccnn2C2CCCC2)[C@H]2CC[C@H](C)CC2)c(F)c1` [Compound 375] belongs 10 to 100 nM. Take `CCC(=O)N[C@@H](C(=O)O)[C@@H](C)c1ccc(NC(=O)[C@@H](NC(=O)c2ccnn2CC)[C@H]2CC[C@H](C)CC2)c(F)c1` [Compound 661]: the “IL-17A/A inhibition (pIC50)” value was “X3b (compounds were evaluated up to 0.3 uM and inhibited activity at 0.3 uM by less than 20%)”.

Turning to `CCn1nccc1C(=O)N[C@H](C(=O)Nc1ccc([C@H](C)[C@@H](NC(=O)NC2CC2)C(=O)N2CCN(C)CC2)cc1)C1CCCCC1` [Compound 402], the IC50 is 10 to 100 nM. The same measure, in the same setting: to `CCn1nccc1C(=O)N[C@H](C(=O)Nc1ccc([C@H](C)[C@@H](NC(=O)NC(C)C)C(=O)N2CCN(C)CC2)cc1F)C1CCCCCC1` [Compound 327] belongs 10 to 100 nM; to `CCn1nccc1C(=O)N[C@H](C(=O)Nc1ccc([C@H](C)[C@@H](NC(=O)C2CC2)C(=O)N2CCN(C)CC2)cc1F)[C@H]1CC[C@H](C)CC1` [Compound 469], 10 to 100 nM; to `CCC(=O)N[C@@H](C(=O)N1CCN(C)CC1)[C@@H](C)c1ccc(NC(=O)C(NC(=O)c2ccnn2C(C)C)C(C)c2ccc(F)cc2)c(F)c1` (stereo partly drawn) [Compound 393], 10 to 100 nM.

Regarding `CCC(=O)N[C@H](Cc1ccc(NC(=O)[C@@H](NC(=O)c2cnc(C(=O)NCC(F)F)[nH]2)C2CCCCC2)c(F)c1)C(=O)N1CCN(C)CC1` [Compound 783], the “IL-17A/A inhibition (pIC50)” value was “X1b (compounds were evaluated up to 10 uM and inhibited activity at 10 uM by less than 20%)”. Regarding `CCC(=O)N[C@@H](C(=O)N1CCN(C)CC1)[C@@H](C)c1ccc(NC(=O)[C@@H](NC(=O)c2coc3c2COC3)[C@H]2CC[C@H](C)CC2)c(F)c1` [Compound 277], the IC50 was less than 10 nM. On the same count and under the same terms, to `CCn1nccc1C(=O)N[C@H](C(=O)Nc1ccc([C@H](C)[C@@H](NC(=O)[C@@H](C)F)C(=O)N2CCN(C)CC2)cc1F)[C@H]1CC[C@H](C)CC1` [Compound 470] belongs 10 to 100 nM. Still for that read-out and setting: the result for `C[C@@H](c1ccc(NC(=O)[C@@H](NC(=O)C(F)(F)c2cccc(C#N)c2)C2CCCCC2)c(F)c1)[C@@H](NC(=O)CC1CC1)C(=O)N1CCN(C)CC1` [Compound 308] reads less than 10 nM.

Turning to `CCC(=O)N[C@@H](C(=O)N1CCN(C)CC1)[C@@H](C)c1ccc(NC(=O)C(NC(=O)c2nonc2CC)C(C)c2ccccc2Cl)c(F)c1` (stereo partly drawn) [Compound 522], the “IL-17A/A inhibition (pIC50)” value was “X1b (compounds were evaluated up to 10 uM and inhibited activity at 10 uM by less than 20%)”.

In the case of `CCn1nccc1C(=O)N[C@H](C(=O)Nc1ccc([C@H](C)[C@@H](NC(=O)c2cc(C)on2)C(=O)N2CCN(C)CC2)cc1F)C1CCCCC1` [Compound 687], the IC50 was 100 to 10000 nM. On to `CCC(=O)N[C@@H](C(=O)NCC1CCC1)[C@@H](C)c1ccc(NC(=O)[C@@H](NC(=O)c2ccnn2CC)[C@H]2CC[C@H](C)CC2)c(F)c1` [Compound 345], for which the IC50 is 10 to 100 nM. `CCC(=O)N[C@H](Cc1ccc(NC(=O)[C@@H](NC(=O)c2c3c(nn2CC)CCC3)C2CCCCC2)c(F)c1)C(=O)N1CCN(C)CC1` [Compound 774]: the “IL-17A/A inhibition (pIC50)” value is “X1b (compounds were evaluated up to 10 uM and inhibited activity at 10 uM by less than 20%)”.

With `CCC(=O)N[C@@H](C(=O)N1CCC(C)(O)CC1)[C@@H](C)c1ccc(NC(=O)[C@@H](NC(=O)C(F)(F)c2cccc(C#N)c2)C2CCCCC2)c(F)c1` [Compound 364], the IC50 is less than 10 nM. As for `CCn1nnnc1C(=O)N[C@H](C(=O)Nc1ccc([C@H](C)[C@@H](NC(=O)c2cnns2)C(=O)N2CCN(C)CC2)cc1F)[C@H]1CC[C@H](C)CC1` [Compound 525], the IC50 is 10 to 100 nM.
